# Assays:
# Ebola virus (Mayinga) = assay: microbe, parasite or virus in culture; format: cell-based
# Rhinovirus A2 = assay: CPE assay, H1 HeLa cells; format: cell-based
# Dengue 4 virus (MY01) = assay: microbe, parasite or virus in culture; format: cell-based; settings: Dengue 4 virus (MY01) [Huh-7]
# Ebola virus = settings: read-out: Previously reported activity EC50; cited from earlier work
# HCV genotype 1b and 2a = assay: HCV subgenomic replicon assay (summary of both genotypes); format: cell-based; settings: Hepatitis C virus; genotype 1b and 2a subgenomic replicon; read-out: EC50 against replicons of both HCV genotypes
# [1] = test system: Influenza A (A/California/07/2009); assay: CPE assay, MDCK cells; format: cell-based; settings: Influenza A virus; Influenza A (A/California/07/2009) [MDCK]; read-out: Antiviral activity EC50
# MARV Ci67 [2] = format: cell-based, Marburg virus
# [3] = test system: Human Coronavirus OC43 (HCoV-OC43); assay: HCoV-OC43 anti-nucleoprotein ELISA antiviral assay, Huh-7 cells; format: cell-based; settings: OC43 [Huh-7]
# Ebola virus (Makona) = assay: microbe, parasite or virus in culture; format: cell-based
# [4] = test system: Influenza B (B/Brisbane/60/2008); assay: CPE assay, MDCK cells; format: cell-based; settings: Influenza B virus; Influenza B (B/Brisbane/60/2008) [MDCK]; read-out: Antiviral activity EC50
# HDV genotype 1 virus = assay: HDV infection assay (HDAg immunofluorescence), Huh7-NTCP cells; format: cell-based, hepatitis delta virus; settings: Hepatitis D (Huh7-NTCP)
# Rhinovirus 16 = assay: CPE assay, H1 HeLa cells; format: cell-based; settings: Rhinovirus 16 [H1 HeLa]
# Zika virus (PRVABC59) = assay: NanoLuc reporter virus infection assay, Huh-7; format: cell-based; settings: Zika virus (PRVABC59) [Huh-7]
# Dengue 2 virus (RL) = assay: microbe, parasite or virus in culture; format: cell-based
# [5] = Multiplex cytotoxicity (calcein AM) in HCV replicon assay; settings: human, Huh-7-lunet HCV genotype 2a replicon cells
# MARV Ci67 [6] = assay: organism not typed; format: cell-based, Marburg virus; settings: HeLa; n = 9; read-out: RDV activity against MARV EC50
# [7] = test system: hepatitis E virus (GT3-Kernow C1 p6/Luciferase replicon); assay: HEV replicon Gaussia luciferase assay, Huh-7; format: cell-based; settings: Hepatitis E GT3 Kernow C1 p6/Luc replicon [Huh-7]
# HCV 1b replicon = settings: Hepatitis C (1b) replicon; read-out: Previously reported activity EC50; cited from earlier work
# [8] = Cytotoxicity in HBV assay; settings: human, HepG2-NTCP cells (clone HY12), HBV-infected
# Sudan virus (Gulu) = assay: microbe, parasite or virus in culture; format: cell-based
# [9] = Multiplex cytotoxicity (calcein AM) in HCV replicon assay; settings: human, Huh-7-lunet HCV genotype 1b replicon cells
# [10] = test system: Dengue 4 virus (Dakar_HD_34460); assay: microbe, parasite or virus in culture; format: cell-based
# Rhinovirus 14 = assay: CPE assay, H1 HeLa cells; format: cell-based; settings: Rhinovirus 14 [H1 HeLa]
# Enterovirus 68D = assay: CPE assay, RD cells; format: cell-based; settings: Enterovirus 68D [RD]
# Marburg (Musoke) = assay: microbe, parasite or virus in culture; format: cell-based, Marburg virus
# [11] = test system: Dengue 1 virus (Djibouti); assay: microbe, parasite or virus in culture; format: cell-based
# SUDV Boniface = assay: microbe, parasite or virus in culture; format: cell-based, Sudan virus; settings: Sudan ebolavirus, HeLa; n = 9; read-out: RDV activity against SUDV EC50
# Marburg (Drandema) = assay: microbe, parasite or virus in culture; format: cell-based, Marburg virus
# Marburg (Kabale) = assay: microbe, parasite or virus in culture; format: cell-based, Marburg virus
# Enterovirus 71 = assay: CPE assay, RD cells; format: cell-based; settings: Enterovirus 71 [RD]
# all SUDV isolates tested = assay: microbe, parasite or virus in culture; format: cell-based; settings: Sudan ebolavirus, HeLa, read-out: EC50 values against all SUDV isolates tested
# [12] = test system: Yellow fever virus (YFS11); assay: microbe, parasite or virus in culture; format: cell-based
# Sudan virus (Boneface) = assay: microbe, parasite or virus in culture; format: cell-based
# Ebola virus (Kikwit) = assay: microbe, parasite or virus in culture; format: cell-based
# Marburg (Angola) = assay: microbe, parasite or virus in culture; format: cell-based, Marburg virus
# Ravn Virus = assay: microbe, parasite or virus in culture; format: cell-based
# [13] = test system: Dengue 1 virus (Western Pacific); assay: microbe, parasite or virus in culture; format: cell-based; settings: Dengue 1 virus (Western Pacific) [Huh-7]
# [14] = Zaire ebolavirus, HeLa, read-out: Antiviral activity EC50
# [15] = n = 1, read-out: Antiviral activity EC50
# [16] = Dengue virus, Huh-7, read-out: Antiviral activity EC50
# [17] = Sudan ebolavirus, HeLa, n = 1, read-out: Antiviral activity EC50
# [18] = Filoviridae, HeLa, read-out: Antiviral activity EC50
compound,measurement,setting,value
"CCC(CC)COC(=O)[C@H](C)N[P@](=O)(OC[C@H]1O[C@@](C#N)(c2ccc3c(N)ncnn23)[C@H](O)[C@@H]1O)Oc1ccccc1 [RDV, Remdesivir]",Selectivity index (SI) = CC50/EC50,Ebola virus (Mayinga),> 18
same,EC50,Ebola virus (Mayinga); [14],136 ± 17 nM
same,Selectivity index (SI) = CC50/EC50,Rhinovirus A2,> 22
same,EC50,"Rhinovirus A2; Rhinovirus A, n = 1, read-out: Antiviral activity EC50",450 nM
same,Selectivity index (SI) = CC50/EC50,Dengue 4 virus (MY01),186
same,EC50,Dengue 4 virus (MY01); [15],180 nM
same,EC50,Ebola virus,3 to 140 nM
same,EC50,HCV genotype 1b and 2a,72 to 89 nM
same,EC50,[1],> 50000 nM
same,maximum fold reduction of RDV EC50 in the presence of favipiravir,MARV Ci67 [2],≥ tenfold
same,EC50,[3]; Betacoronavirus 1,67 ± 5 nM
same,Selectivity index (SI) = CC50/EC50,[3],282
same,Selectivity index (SI) = CC50/EC50,Ebola virus (Makona),> 32
same,EC50,Ebola virus (Makona); [14],78 ± 4 nM
same,EC50,[4],> 50000 nM
same,Selectivity index (SI),HDV genotype 1 virus,"Low (When minimal RDV antiviral activity is observed for a particular virus, low SI is indicated)"
same,EC50,"HDV genotype 1 virus; Hepatitis delta virus, read-out: Antiviral activity EC50",> 5000 nM
same,EC50,"Rhinovirus 16; Enterovirus, n = 1, read-out: Antiviral activity EC50",750 nM
same,Selectivity index (SI) = CC50/EC50,Rhinovirus 16,> 13
same,Selectivity index (SI) = CC50/EC50,Zika virus (PRVABC59),128
same,EC50,Zika virus (PRVABC59); [15],260 nM
same,Selectivity index (SI) = CC50/EC50,Dengue 2 virus (RL),115
same,EC50,Dengue 2 virus (RL); [16],290 ± 70 nM
same,CC50,[5],17000 ± 3000 nM
same,EC50,MARV Ci67 [6],109 nM
same,Selectivity index (SI),[7],"Low (When minimal RDV antiviral activity is observed for a particular virus, low SI is indicated)"
same,EC50,"[7]; Hepatitis E virus, read-out: Antiviral activity EC50",> 2070 nM
same,EC50,HCV 1b replicon,57 nM
same,CC50 at 5 days,[8],7400 nM
same,Selectivity index (SI) = CC50/EC50,Sudan virus (Gulu),> 192
same,EC50,Sudan virus (Gulu); [17],60 nM
same,CC50,[9],> 20000 nM
same,Selectivity index (SI) = CC50/EC50,[10],176
same,EC50,[10]; [16],190 ± 50 nM
same,EC50,"Rhinovirus 14; Enterovirus, read-out: Antiviral activity EC50",385 ± 318 nM
same,Selectivity index (SI) = CC50/EC50,Rhinovirus 14,> 26
same,Selectivity index (SI) = CC50/EC50,Enterovirus 68D,56
same,EC50,Enterovirus 68D; [15],50 nM
same,Selectivity index (SI) = CC50/EC50,Marburg (Musoke),> 63
same,EC50,Marburg (Musoke); [18],40 ± 4 nM
same,Selectivity index (SI) = CC50/EC50,[11],108
same,EC50,[11]; [16],310 ± 90 nM
same,EC50,SUDV Boniface,308 nM
same,Selectivity index (SI) = CC50/EC50,Marburg (Drandema),> 74
same,EC50,Marburg (Drandema); [18],34 ± 4 nM
same,Selectivity index (SI) = CC50/EC50,Marburg (Kabale),> 63
same,EC50,Marburg (Kabale); [18],40 ± 2 nM
same,Selectivity index (SI) = CC50/EC50,Enterovirus 71,24
same,EC50,"Enterovirus 71; Enterovirus A, n = 1, read-out: Antiviral activity EC50",140 nM
same,EC50,all SUDV isolates tested,120 to 240 nM
same,Selectivity index (SI) = CC50/EC50,[12],32
same,EC50,"[12]; Yellow fever virus, Huh-7, n = 1, read-out: Antiviral activity EC50",1060 nM
same,Selectivity index (SI) = CC50/EC50,Sudan virus (Boneface),> 21
same,EC50,Sudan virus (Boneface); [17],120 nM
same,Selectivity index (SI) = CC50/EC50,Ebola virus (Kikwit),> 36
same,EC50,Ebola virus (Kikwit); [14],70 ± 8 nM
same,Selectivity index (SI) = CC50/EC50,Marburg (Angola),> 56
same,EC50,Marburg (Angola); [18],45 ± 30 nM
same,Selectivity index (SI) = CC50/EC50,Ravn Virus,> 37
same,EC50,Ravn Virus; [18],68 ± 10 nM
same,Selectivity index (SI) = CC50/EC50,[13],159
same,EC50,[13]; [15],210 nM
